Measured values: patent US10221138B2, “Biaryl derivatives as GPR120 agonists” (LG CHEM, LTD., priority 2013, dated 2019)

Molecular target: T1, hGPR120 (Homo sapiens, UniProt Q5NUL3)
T1 construct: expressed in transfected cells; host or cells: CHO-K1
T1 sequence (Q5NUL3 1-361): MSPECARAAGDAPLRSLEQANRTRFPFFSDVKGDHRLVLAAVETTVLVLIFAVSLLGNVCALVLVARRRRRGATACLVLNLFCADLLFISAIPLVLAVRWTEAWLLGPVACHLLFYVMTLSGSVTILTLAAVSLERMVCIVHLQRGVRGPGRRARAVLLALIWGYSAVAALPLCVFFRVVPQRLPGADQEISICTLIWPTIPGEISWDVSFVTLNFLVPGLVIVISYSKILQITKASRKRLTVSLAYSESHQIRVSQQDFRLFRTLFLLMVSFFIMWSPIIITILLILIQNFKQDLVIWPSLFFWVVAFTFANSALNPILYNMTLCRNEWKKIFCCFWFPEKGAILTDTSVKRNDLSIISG
Assay: Measurement of activity of GPR120 agonist (cell-based calcium fluorescence assay)
Conditions: CHO-K1 cells expressing Ga16 and hGPR120, Calcium 5 dye fluorescence; activity class; read-out: EC50
Description: CHO-K1 cells expressing Ga16 and hGPR120 were dispensed into each well of a 96-well plate (3×10^4 cells/100 μl/well) and then incubated in 5% CO2, 37° C. incubator for 18 hours. Each well was treated with 100 μl of Calcium 5 dye (Molecular Devices) solution including 2% DMSO and then incubated in 5% CO2, 37° C. incubator for 1 hour. Serially diluted GPR120 agonists were prepared to a final concentration of 0.5% DMSO in a 96-well plate.
Fluorescence increased by the serially diluted GPR120 agonists is calculated as a relative percent (%) value based on the fluorescence represented by the treatment of 1% DMSO only. […] The calculation of measurement was carried out by using statistical software (Prizm).
Activity is denoted based on the following criteria: […]

Structure (SMILES) | EC50
O=C(O)CCCOc1c(F)cc(-c2cccc(Oc3ccccc3)n2)cc1F [Example 3, 4-[2,6-difluoro-4-(6-phenoxy-2-pyridyl)phenoxy]butyric acid] | < 200 nM
CC(C)Sc1cccc(-c2ccc(OCCCC(=O)O)c(F)c2)n1 [Example 5, 4-[2-fluoro-4-(6-isopropylsulfanyl-2-pyridyl)phenoxy]butyric acid] | 200 to 2000 nM
O=C(O)CCCOc1c(F)cc(-c2cccc(SC3CCCC3)n2)cc1F [Example 6, 4-[4-(6-cyclopentylsulfanyl-2-pyridyl)-2,6-difluoro-phenoxy]butyric acid] | < 200 nM
COc1cc(-c2cccnc2SC2CCC2)ccc1OCCCC(=O)O [Example 7, 4-[4-(2-cyclobutylsulfanyl-pyridin-3-yl)-2-methoxy-phenoxy]-butyric acid] | 2000 to 20000 nM
Cc1cc(-c2cccnc2SC2CCC2)cc(C)c1OCCCC(=O)O [Example 10, 4-[4-(2-cyclobutylsulfanyl-pyridin-3-yl)-2,6-dimethyl-phenoxy]-butyric acid] | < 200 nM
O=C(O)CCCOc1c(F)cc(-c2cccc(N3CCCC3)n2)cc1F [Example 12, 4-[2,6-difluoro-4-(6-pyrrolidin-1-yl-2-pyridyl)phenoxy]butyric acid] | < 200 nM
CCC(C)Sc1ncccc1-c1cc(F)c(OCCCC(=O)O)c(F)c1 (stereo not shown) [Example 13, 4-[4-(2-sec-butylsulfanyl-pyridin-3-yl)-2,6-difluoro-phenoxy]-butyric acid] | 200 to 2000 nM
O=C(O)CCCOc1ccc(-c2cccc(OC3CCCC3)c2)c(F)c1F [Example 14, 4-[4-[3-(cyclopentoxy)phenyl]-2,3-difluoro-phenoxy]butyric acid] | 200 to 2000 nM
O=C(O)CCCOc1c(F)cc(-c2cccc(N3CCCCC3)n2)cc1F [Example 15, 4-[2,6-difluoro-4-[6-(1-piperidyl)-2-pyridyl]phenoxy]butyric acid] | 200 to 2000 nM
CN(c1ccccc1)c1cccc(-c2cc(F)c(OCCCC(=O)O)c(F)c2)n1 [Example 17, 4-[2,6-difluoro-4-[6-(N-methylanilino)-2-pyridyl]phenoxy]butyric acid] | 200 to 2000 nM
O=C(O)CCCOc1c(F)cc(-c2cccc(SC3CCC3)n2)cc1F [Example 20, 4-[4-(6-cyclobutylsulfanyl-2-pyridyl)-2,6-difluoro-phenoxy]butyric acid] | < 200 nM
O=C(O)CCCOc1c(F)cc(-c2cccc(OCC3CC3)n2)cc1F [Example 24, 4-[4-[6-(cyclopropylmethoxy)-2-pyridyl]-2,6-difluoro-phenoxy]butyric acid] | < 200 nM
O=C(O)CCCOc1c(F)cc(-c2cccc(OC3CCC3)n2)cc1F [Example 25, 4-[4-[6-(cyclobutoxy)-2-pyridyl]-2,6-difluoro-phenoxy]butyric acid] | < 200 nM
Cc1cc(-c2cccc(OC3CCC3)n2)ccc1OCCCC(=O)O [Example 26, 4-[4-[6-(cyclobutoxy)-2-pyridyl]-2-methyl-phenoxy]butyric acid] | < 200 nM
O=C(O)CCCOc1ccc(-c2cccc(OC3CCC3)n2)cc1C(F)(F)F [Example 27, 4-[4-[6-(cyclobutoxy)-2-pyridyl]-2-(trifluoromethyl)phenoxy]butyric acid] | < 200 nM
CC(CCC(=O)O)Oc1c(F)cc(-c2cccc(OC3CCC3)n2)cc1F (stereo not shown) [Example 29, 4-[4-[6-(cyclobutoxy)-2-pyridyl]-2,6-difluoro-phenoxy]pentanoic acid] | < 200 nM
CC(CCC(=O)O)Oc1ccc(-c2cccnc2SC2CCC2)cn1 (stereo not shown) [Example 30, 4-[[5-(2-cyclobutylsulfanyl-3-pyridyl)-2-pyridyl]oxy]pentanoic acid] | > 20000 nM
CC(C)CCSc1ncccc1-c1cc(F)c(OCCCC(=O)O)c(F)c1 [Example 31, 4-{2,6-difluoro-4-[2-(3-methyl-butylsulfanyl)-pyridin-3-yl]-phenoxy}-butyric acid] | 200 to 2000 nM
O=C(O)CC1(COc2c(F)cc(-c3cccnc3SC3CCC3)cc2F)CC1 [Example 33, 2-[1-[[4-(2-cyclobutylsulfanyl-3-pyridyl)-2,6-difluoro-phenoxy]methyl]cyclopropyl]acetic acid] | 200 to 2000 nM
O=C(O)CCCOc1ccc(-c2cccc(OC3CCC3)c2)nc1 [Example 35, 4-[[6-[3-(cyclobutoxy)phenyl]-3-pyridyl]oxy]butyric acid] | 200 to 2000 nM
O=C(O)CCCOc1ccc(-c2cccc(OC3CCCC3)c2)nc1 [Example 36, 4-[[6-[3-(cyclopentoxy)phenyl]-3-pyridyl]oxy]butyric acid] | 200 to 2000 nM
O=C(O)CCCOc1ccc(-c2ccccc2Oc2ccccc2)cc1 [Example 37, 4-(2′-phenoxy-biphenyl-4-yloxy)-butyric acid] | < 200 nM
CC(C)Sc1ncccc1-c1ccc(OCCCC(=O)O)cc1 [Example 38, 4-[4-(2-isopropylsulfanyl-pyridin-3-yl)-phenoxy]-butyric acid] | 200 to 2000 nM
CC(C)Sc1ncccc1-c1cc(F)c(OCCCC(=O)O)c(F)c1 [Example 41, 4-[2,6-difluoro-4-(2-isopropylsulfanyl-pyridin-3-yl)-phenoxy]-butyric acid] | 200 to 2000 nM
CC(C)Oc1ncccc1-c1cc(F)c(OCCCC(=O)O)c(F)c1 [Example 43, 4-[2,6-difluoro-4-(2-isopropoxy-pyridin-3-yl)-phenoxy]-butyric acid] | 200 to 2000 nM
O=C(O)CCCOc1c(F)cc(-c2cccnc2SCC2CC2)cc1F [Example 47, 4-[4-(2-cyclopropylmethylsulfanyl-pyridin-3-yl)-2,6-difluoro-phenoxy]-butyric acid] | < 200 nM
O=C(O)CCCOc1ccc(-c2cccnc2SC2CCC2)cc1 [Example 48, 4-[4-(2-cyclobutylsulfanyl-pyridin-3-yl)-phenoxy]-butyric acid] | < 200 nM
CCCSc1ncccc1-c1ccc(OCCCC(=O)O)cc1 [Example 51, 4-[4-(2-propylsulfanyl-pyridin-3-yl)-phenoxy]-butyric acid] | < 200 nM
O=C(O)CCCOc1c(F)cc(-c2ccccc2OC2CCC2)cc1F [Example 53, 4-(2′-cyclobutoxy-3,5-difluoro-biphenyl-4-yloxy)-butyric acid] | < 200 nM

Continued, values first:

EC50 | Structure (SMILES)
200 to 2000 nM | O=C(O)CCCOc1ccc(-c2cccc(Oc3ccccc3)n2)cc1 [Example 1, 4-[4-(6-phenoxy-2-pyridyl)phenoxy]butyric acid]
< 200 nM | CC(C)Sc1cccc(-c2cc(F)c(OCCCC(=O)O)c(F)c2)n1 [Example 2, 4-[2,6-difluoro-4-(6-isopropylsulfanyl-2-pyridyl)phenoxy]butyric acid]
200 to 2000 nM | CC(C)Sc1cccc(-c2ccc(OCCCC(=O)O)c(Cl)c2)n1 [Example 4, 4-[2-chloro-4-(6-isopropylsulfanyl-2-pyridyl)phenoxy]butyric acid]
> 20000 nM | CC(C)Sc1cc(-c2cc(F)c(OCCCC(=O)O)c(F)c2)ccn1 [Example 8, 4-[2,6-difluoro-4-(2-isopropylsulfanyl-4-pyridyl)phenoxy]butyric acid]
200 to 2000 nM | O=C(O)CCCOc1c(F)cc(-c2cccc(Nc3ccccc3)n2)cc1F [Example 16, 4-[4-(6-anilino-2-pyridyl)-2,6-difluoro-phenoxy]butyric acid]
< 200 nM | CCCSc1cccc(-c2cc(F)c(OCCCC(=O)O)c(F)c2)n1 [Example 21, 4-[2,6-difluoro-4-(6-propylsulfanyl-2-pyridyl)phenoxy]butyric acid]
< 200 nM | CCCOc1cccc(-c2cc(F)c(OCCCC(=O)O)c(F)c2)n1 [Example 23, 4-[2,6-difluoro-4-(6-propoxy-2-pyridyl)phenoxy]butyric acid]
< 200 nM | CC(CCC(=O)O)Oc1c(F)cc(-c2cccnc2SC2CCC2)cc1F (stereo not shown) [Example 28, 4-[4-(2-cyclobutylsulfanyl-3-pyridyl)-2,6-difluoro-phenoxy]pentanoic acid]
> 20000 nM | O=C(O)CCCOc1c(F)cc(-c2cccnc2OCCF)cc1F [Example 32, 4-{2,6-difluoro-4-[2-(2-fluoro-ethoxy)-pyridin-3-yl]-phenoxy}-butyric acid]
< 200 nM | O=C(O)CCCOc1c(F)cc(-c2ccccc2Oc2ccccc2)cc1F [Example 39, 4-(3,5-difluoro-2′-phenoxy-biphenyl-4-yloxy)-butyric acid]
< 200 nM | O=C(O)CCCOc1c(F)cc(-c2cccnc2OC2CCCC2)cc1F [Example 44, 4-[4-(2-cyclopentyloxy-pyridin-3-yl)-2,6-difluoro-phenoxy]-butyric acid]
200 to 2000 nM | O=C(O)CCCOc1c(F)cc(-c2cccnc2OCC2CC2)cc1F [Example 46, 4-[4-(2-cyclopropylmethoxy-pyridin-3-yl)-2,6-difluoro-phenoxy]-butyric acid]
200 to 2000 nM | O=C(O)CCCOc1ccc(-c2cccnc2SCC2CC2)cc1 [Example 49, 4-[4-(2-cyclopropylmethylsulfanyl-pyridin-3-yl)-phenoxy]-butyric acid]
200 to 2000 nM | CC(C)Oc1ccccc1-c1cc(F)c(OCCCC(=O)O)c(F)c1 [Example 52, 4-(3,5-difluoro-2′-isopropoxy-biphenyl-4-yloxy)-butyric acid]
